# Measured values as given in patent US20210251991A1, “SUBSTITUTED 2,2'-BIPYRIMIDINYL COMPOUNDS, ANALOGUES THEREOF, AND METHODS USING SAME” (priority 2018, published 2021).
# Read-outs that look alike come from different tables or passages of the source.
# System: HBsAg in HepG2.2.15 cells
# Test: HBsAg assay: inhibition of HBsAg in HepG2.2.15 cells (chemiluminescence immunoassay of supernatant)
# Type: cell-based, hepatitis B virus
# Procedure: Inhibition of HBsAg was determined in HepG2.2.15 cells. Cells were maintained in culture medium containing 10% fetal calf serum, […], Glutamine, penicillin/streptomycin. Cells were seeded in 96-well collagen-coated plate at a density of 30,000 cells/well. Serially diluted compounds were added to cells next day at the final DMSO concentration of 0.5%. Cells were incubated with compounds for 2-3 days, after which medium was removed. Fresh medium containing compounds was added to cells for additional 3-4 days. At day 6 after exposure of compounds, supernatant was collected, the HBsAg immunoassay (microplate-based chemiluminescence immunoassay kits, CLIA, Autobio Diagnosics Co., Zhengzhou, China, Catalog #CL0310-2) was used to determine the level of HBsAg according to manufactory instruction. Dose-response curves were generated and the EC50 value (effective concentrations that achieved 50% inhibitory effect) were determined using XLfit software. In addition, cells were seeded at a density of 5,000 cells/well for determination of cell viability in the presence and absence of compounds by using CellTiter-Glo reagent (Promega).
# [1] = read-out: sAg EC50, HepG2.2.15 cells, supernatant collected at day 6 after exposure, HBsAg CLIA
# [2] = Hepatitis B virus, HepG2.2.15, 144 h, read-out: sAg EC50, HepG2.2.15 cells, supernatant collected at day 6 after exposure, HBsAg CLIA
SMILES,EC50 [1],EC50 [2]
"CCC1c2cc(OC)c(OC)cc2CN1c1ccnc(-c2ncccn2)n1 (single isomer, unassigned) [Example 57, 2-([2,2′-Bipyrimidin]-4-yl)-1-ethyl-5,6-dimethoxyisoindoline]",76 nM,–
"CCC1c2cc(F)c(OC)cc2CN1c1ccnc(-c2ncccn2)n1 (single isomer, unassigned) [Example 64, 2-([2,2′-Bipyrimidin]-4-yl)-1-ethyl-6-fluoro-5-methoxyisoindoline]",12 nM,–
"CCC1c2cc(F)c(OC)cc2CN1c1ccnc(-c2ncccn2)n1 (single isomer, unassigned) [Example 65, 2-([2,2′-Bipyrimidin]-4-yl)-1-ethyl-6-fluoro-5-methoxyisoindoline]",230 nM,–
"CCC1c2cc(F)c(OC)cc2CN1c1nc(-c2ncccn2)ncc1-c1ccccc1 (single isomer, unassigned) [Example 66, 1-Ethyl-6-fluoro-5-methoxy-2-(5-phenyl-[2,2′-bipyrimidin]-4-yl)isoindoline]",1000 nM,–
"CCC1c2cc(F)c(OC)cc2CN1c1nc(-c2ncccn2)ncc1-c1ccccc1 (single isomer, unassigned) [Example 67, 1-Ethyl-6-fluoro-5-methoxy-2-(5-phenyl-[2,2′-bipyrimidin]-4-yl)isoindoline]",18000 nM,–
"CCC1c2cc(F)c(OC)cc2CN1c1nc(-c2ncccn2)ncc1C (single isomer, unassigned) [Example 68, 1-Ethyl-6-fluoro-5-methoxy-2-(5-methyl-[2,2′-bipyrimidin]-4-yl)isoindoline]",2 nM,–
"CCC1c2cc(F)c(OC)cc2CN1c1nc(-c2ncccn2)ncc1C (single isomer, unassigned) [Example 69, 1-Ethyl-6-fluoro-5-methoxy-2-(5-methyl-[2,2′-bipyrimidin]-4-yl)isoindoline]",59 nM,–
"CCC1c2cc(F)c(OC)cc2CN1c1nc(-c2ncccn2)ncc1F (single isomer, unassigned) [Example 71, 1-Ethyl-6-fluoro-2-(5-fluoro-[2,2′-bipyrimidin]-4-yl)-5-methoxyisoindoline]",3 nM,–
"CCC1c2cc(F)c(OC)cc2CN1c1nc(-c2ncccn2)ncc1F (single isomer, unassigned) [Example 72, 1-Ethyl-6-fluoro-2-(5-fluoro-[2,2′-bipyrimidin]-4-yl)-5-methoxyisoindoline]",67 nM,–
"CCC1c2cc(F)c(OC)cc2CN1c1nc(-c2ncccn2)ncc1OC (single isomer, unassigned) [Example 73, 1-Ethyl-6-fluoro-5-methoxy-2-(5-methoxy-[2,2′-bipyrimidin]-4-yl)isoindoline]",1000 nM,–
"CCC1c2cc(F)c(OC)cc2CN1c1nc(-c2ncccn2)ncc1OC (single isomer, unassigned) [Example 74, 1-Ethyl-6-fluoro-5-methoxy-2-(5-methoxy-[2,2′-bipyrimidin]-4-yl)isoindoline]",8 nM,–
"CCC1c2cc(OC)c(F)cc2CN1c1ccnc(-c2ncccn2)n1 (single isomer, unassigned) [Example 77, 2-([2,2′-Bipyrimidin]-4-yl)-1-ethyl-5-fluoro-6-methoxyisoindoline]",–,110 nM
"CCC1c2cc(OC)c(F)cc2CN1c1ccnc(-c2ncccn2)n1 (single isomer, unassigned) [Example 78, 2-([2,2′-Bipyrimidin]-4-yl)-1-ethyl-5-fluoro-6-methoxyisoindoline]",98 nM,–
"CCC1c2cc(F)c(OC)cc2CN1c1cnc(-c2ncccn2)nc1 (single isomer, unassigned) [Example 89, 2-([2,2′-Bipyrimidin]-5-yl)-1-ethyl-6-fluoro-5-methoxyisoindoline]",8 nM,–
"CCC1c2cc(F)c(OC)cc2CN1c1cnc(-c2ncccn2)nc1 (single isomer, unassigned) [Example 90, 2-([2,2′-Bipyrimidin]-5-yl)-1-ethyl-6-fluoro-5-methoxyisoindoline]",260 nM,–
"CCC1c2cc(F)c(OC)cc2CN1c1cnc(C(=O)O)nc1 (single isomer, unassigned) [Example 99, 5-(1-Ethyl-6-fluoro-5-methoxyisoindolin-2-yl)pyrimidine-2-carboxylic Acid]",7000 nM,–
"CCC1c2cc(F)c(OC)cc2CN1c1cnc(C(=O)O)nc1 (single isomer, unassigned) [Example 100, 5-(1-Ethyl-6-fluoro-5-methoxyisoindolin-2-yl)pyrimidine-2-carboxylic Acid]",200 nM,–
"CCC1c2cc(F)c(OC)cc2CN1c1cnc(C(=O)NS(C)(=O)=O)nc1 (single isomer, unassigned) [Example 102, 5-(1-Ethyl-6-fluoro-5-methoxyisoindolin-2-yl)-N-(methylsulfonyl)pyrimidine-2-carboxamide]",–,620 nM

SMILES,EC50 [1],EC50 [2]
"CCC1c2cc(F)c(OC)cc2CN1c1cnc(C(=O)NS(C)(=O)=O)nc1 (single isomer, unassigned) [Example 103, 5-(1-Ethyl-6-fluoro-5-methoxyisoindolin-2-yl)-N-(methylsulfonyl)pyrimidine-2-carboxamide]",600 nM,–
"CCC1c2cc(F)c(OC)cc2CN1c1cnc(C(=O)Nc2ccccn2)nc1 (single isomer, unassigned) [Example 107, 5-(1-Ethyl-6-fluoro-5-methoxyisoindolin-2-yl)-N-(pyridin-2-yl)pyrimidine-2-carboxamide]",49000 nM,–
"CCC1c2cc(F)c(OC)cc2CN1c1cnc(C(=O)Nc2ccccn2)nc1 (single isomer, unassigned) [Example 108, 5-(1-Ethyl-6-fluoro-5-methoxyisoindolin-2-yl)-N-(pyridin-2-yl)pyrimidine-2-carboxamide]",560 nM,–
"CCC1c2cc(F)c(OC)cc2CN1c1ccnc(C(=O)NC)n1 (single isomer, unassigned) [Example 109, 4-(1-Ethyl-6-fluoro-5-methoxyisoindolin-2-yl)-N-methylpyrimidine-2-carboxamide]",42000 nM,–
"CCC1c2cc(F)c(OC)cc2CN1c1ccnc(C(=O)NC)n1 (single isomer, unassigned) [Example 110, 4-(1-Ethyl-6-fluoro-5-methoxyisoindolin-2-yl)-N-methylpyrimidine-2-carboxamide]",3000 nM,–
"CCC1c2cc(F)c(OC)cc2CCN1c1cnc(C(=O)O)nc1 (single isomer, unassigned) [Example 114, 5-(1-Ethyl-7-fluoro-6-methoxy-3,4-dihydro-1H-isoquinolin-2-yl)pyrimidine-2-carboxylic Acid]",57 nM,–
"CCC1c2cc(F)c(OC)cc2CCN1c1cnc(C(=O)O)nc1 (single isomer, unassigned) [Example 115, 5-(1-Ethyl-7-fluoro-6-methoxy-3,4-dihydro-1H-isoquinolin-2-yl)pyrimidine-2-carboxylic Acid]",6000 nM,–
"CCC1c2cc(F)c(F)cc2CN1c1cnc(C(=O)O)nc1 (single isomer, unassigned) [Example 116, 5-(1-Ethyl-5,6-difluoroisoindolin-2-yl)pyrimidine-2-carboxylic Acid]",3000 nM,–
"CCC1c2cc(F)c(F)cc2CN1c1cnc(C(=O)O)nc1 (single isomer, unassigned) [Example 117, 5-(1-Ethyl-5,6-difluoroisoindolin-2-yl)pyrimidine-2-carboxylic Acid]",15000 nM,–
"CCC1c2cc(F)c(OC)cc2CCN1c1ccnc(-c2ncccn2)n1 (single isomer, unassigned) [Example 128, 2-(2,2′-Bipyrimidin-4-yl)-1-ethyl-7-fluoro-6-methoxy-1,2,3,4-tetrahydroisoquinoline]",82 nM,–
"CCC1c2cc(F)c(OC)cc2CCN1c1ccnc(-c2ncccn2)n1 (single isomer, unassigned) [Example 129, 2-(2,2′-Bipyrimidin-4-yl)-1-ethyl-7-fluoro-6-methoxy-1,2,3,4-tetrahydroisoquinoline]",15 nM,–
"CCCC1c2ccc(F)c(F)c2CCN1c1ccnc(-c2ncccn2)n1 (single isomer, unassigned) [Example 130, 2-([2,2′-Bipyrimidin]-4-yl)-5,6-difluoro-1-propyl-1,2,3,4-tetrahydroisoquinoline]",97 nM,–
"CCCC1c2ccc(F)c(F)c2CCN1c1ccnc(-c2ncccn2)n1 (single isomer, unassigned) [Example 131, 2-([2,2′-Bipyrimidin]-4-yl)-5,6-difluoro-1-propyl-1,2,3,4-tetrahydroisoquinoline]",2000 nM,–
"CCC1c2cc(F)c(OC)cc2CCN1c1cnc(-c2ncccn2)nc1 (single isomer, unassigned) [Example 133, 2-(2,2′-Bipyrimidin-5-yl)-1-ethyl-7-fluoro-6-methoxy-1,2,3,4-tetrahydroisoquinoline]",3 nM,–
"CCC1c2cc(F)c(OC)cc2CCN1c1cnc(-c2ncccn2)nc1 (single isomer, unassigned) [Example 134, 2-(2,2′-Bipyrimidin-5-yl)-1-ethyl-7-fluoro-6-methoxy-1,2,3,4-tetrahydroisoquinoline]",54 nM,–
"Fc1cc(F)c2c(c1)CN(c1cnc(-c3ncccn3)nc1)CC2 [Example 1, 2-([2,2′-Bipyrimidin]-5-yl)-5,7-difluoro-1,2,3,4-tetrahydroisoquinoline]",–,1900 nM
"Fc1cc(F)c2c(c1)CN(c1ccnc(-c3ncccn3)n1)CC2 [Example 2, 2-([2,2′-Bipyrimidin]-4-yl)-5,7-difluoro-1,2,3,4-tetrahydroisoquinoline]",–,1600 nM
